Assay type in all cases: in vivo
Test [1] has as its system ryegrass, Italian (Italian ryegrass, Lolium multiflorum). As to the kind of experiment: Test A preemergence. The following applies: Lolium multiflorum, pre-emergence, 240 h; for pest or weed control at 125 g/ha: 125 g ai/ha, preemergence, 0 to 100 scale where 0 is no effect and 100 is complete control, read-out: Ryegrass, Italian plant response rating; for pest or weed control at 500 g/ha: 500 g ai/ha, Preemergence, visual injury vs untreated controls after approximately 10 d, read-out: Ryegrass, Italian plant response rating (0 to 100 scale where 0 is no effect and 100 is complete control). A digest of the protocol:
(§1)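 Preemergence soil spray on seeded pots or post-emergence spray on 1–2 leaf plants, in loam–sand blend. Greenhouse ~10 d. Visual rating 0–100 against untreated plants.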

Test [2] relates to pigweed (Amaranthus retroflexus). As to the kind of experiment: Test A preemergence. As to conditions: Amaranthus retroflexus, pre-emergence, 240 h; for pest or weed control at 125 g/ha: 125 g ai/ha, preemergence, 0 to 100 scale where 0 is no effect and 100 is complete control, read-out: Pigweed plant response rating; for pest or weed control at 500 g/ha: 500 g ai/ha, Preemergence, visual injury vs untreated controls after approximately 10 d, read-out: Pigweed plant response rating (0 to 100 scale where 0 is no effect and 100 is complete control).

Test [3] deals with giant foxtail (Setaria faberii). As to the kind of experiment: Test A preemergence. As to conditions: Setaria faberi, pre-emergence, 240 h; for pest or weed control at 125 g/ha: 125 g ai/ha, preemergence, 0 to 100 scale where 0 is no effect and 100 is complete control, read-out: Foxtail, Giant plant response rating; for pest or weed control at 500 g/ha: 500 g ai/ha, Preemergence, visual injury vs untreated controls after approximately 10 d, read-out: Foxtail, Giant plant response rating (0 to 100 scale where 0 is no effect and 100 is complete control). Put shortly: as §1

In test [4] the test system is Kochia (Kochia scoparia). Description: Test A preemergence. As to conditions: Bassia scoparia, pre-emergence, 240 h; for pest or weed control at 125 g/ha: 125 g ai/ha, preemergence, 0 to 100 scale where 0 is no effect and 100 is complete control, read-out: Kochia plant response rating; for pest or weed control at 500 g/ha: 500 g ai/ha, Preemergence, visual injury vs untreated controls after approximately 10 d, read-out: Kochia plant response rating (0 to 100 scale where 0 is no effect and 100 is complete control). Put shortly: as §1

Test [5] deals with barnyardgrass (Echinochloa crus-galli). As to the kind of experiment: Test A preemergence. As to conditions: Echinochloa crus-galli, pre-emergence, 240 h; for pest or weed control at 125 g/ha: 125 g ai/ha, preemergence, 0 to 100 scale where 0 is no effect and 100 is complete control, read-out: Barnyardgrass plant response rating; for pest or weed control at 500 g/ha: 500 g ai/ha, Preemergence, visual injury vs untreated controls after approximately 10 d, read-out: Barnyardgrass plant response rating (0 to 100 scale where 0 is no effect and 100 is complete control). A digest of the protocol:
as §1

Test [6] relates to ragweed (common ragweed, Ambrosia elatior). Description: Test A preemergence. The following applies: Ambrosia artemisiifolia, pre-emergence, 240 h; for pest or weed control at 125 g/ha: 125 g ai/ha, preemergence, 0 to 100 scale where 0 is no effect and 100 is complete control, read-out: Ragweed plant response rating; for pest or weed control at 500 g/ha: 500 g ai/ha, Preemergence, visual injury vs untreated controls after approximately 10 d, read-out: Ragweed plant response rating (0 to 100 scale where 0 is no effect and 100 is complete control). Put shortly:
as §1

Test [7] concerns ryegrass, Italian (Italian ryegrass, Lolium multiflorum). Description: Test A postemergence. As to conditions: Lolium multiflorum, post-emergence, 240 h, 125 g ai/ha, postemergence, visual injury rating after approximately 10 d; read-out: Ryegrass, Italian plant response rating (0 to 100 scale, 0 no effect, 100 complete control). A digest of the protocol:
as §1

The test system of test [8] is wheat (Triticum aestivum). As to the kind of experiment: Test A postemergence. As to conditions: Triticum aestivum, post-emergence, 240 h, 125 g ai/ha, postemergence, visual injury rating after approximately 10 d; read-out: Wheat plant response rating (0 to 100 scale, 0 no effect, 100 complete control). Put shortly: as §1
Test [9] concerns pigweed (Amaranthus retroflexus). Description: Test A postemergence. The following applies: Amaranthus retroflexus, post-emergence, 240 h, 125 g ai/ha, postemergence, visual injury rating after approximately 10 d; read-out: Pigweed plant response rating (0 to 100 scale, 0 no effect, 100 complete control). A digest of the protocol: as §1
For test [10], the system named is Galium (catchweed bedstraw, Galium aparine). Description: Test A postemergence. As to conditions: Galium, post-emergence, 240 h, 125 g ai/ha, postemergence, visual injury rating after approximately 10 d; read-out: Galium plant response rating (0 to 100 scale, 0 no effect, 100 complete control). A digest of the protocol:
as §1

Test [11] relates to giant foxtail (Setaria faberii). As to the kind of experiment: Test A postemergence. As to conditions: Setaria faberi, post-emergence, 240 h, 125 g ai/ha, postemergence, visual injury rating after approximately 10 d; read-out: Foxtail, Giant plant response rating (0 to 100 scale, 0 no effect, 100 complete control). A digest of the protocol: as §1
The subject of test [12] is Kochia (Kochia scoparia). Description: Test A postemergence. As to conditions: Bassia scoparia, post-emergence, 240 h, 125 g ai/ha, postemergence, visual injury rating after approximately 10 d; read-out: Kochia plant response rating (0 to 100 scale, 0 no effect, 100 complete control). A digest of the protocol:
as §1

The next test deals with corn (Zea mays). Description: Test A postemergence. As to conditions: Zea mays, post-emergence, 240 h, 125 g ai/ha, postemergence, visual injury rating after approximately 10 d; read-out: Corn plant response rating (0 to 100 scale, 0 no effect, 100 complete control). Put shortly:
as §1

Test [13] relates to barnyardgrass (Echinochloa crus-galli). Description: Test A postemergence. As to conditions: Echinochloa crus-galli, post-emergence, 240 h, 125 g ai/ha, postemergence, visual injury rating after approximately 10 d; read-out: Barnyardgrass plant response rating (0 to 100 scale, 0 no effect, 100 complete control). A digest of the protocol:
as §1

Test [14] concerns ragweed (common ragweed, Ambrosia elatior). As to the kind of experiment: Test A postemergence. As to conditions: Ambrosia artemisiifolia, post-emergence, 240 h, 125 g ai/ha, postemergence, visual injury rating after approximately 10 d; read-out: Ragweed plant response rating (0 to 100 scale, 0 no effect, 100 complete control). Put shortly: as §1

As to `CSc1ccccc1NC(=O)[C@H]1C(=O)NC[C@@H]1c1cccc2c1OC(F)(F)O2` [Compound 865], the pest or weed control at 125 g/ha (in test [1]; in [2]; in test [3]; in the test on Kochia (Kochia scoparia) [4]; in test [5]; in [6]) was 0% each time. Besides, the pest or weed control at 125 g/ha (in [7]; in [9]; in test [10]; in test [11]; in the test on Kochia (Kochia scoparia) [12]; in [13]) was 0% throughout. Besides, the pest or weed control at 125 g/ha in [14] stood at 0%. Further, the pest or weed control at 500 g/ha in test [1] is 0%; in test [2], 0%; in [3], 80%; in test [5], 70%; in test [6], 0%. Besides, the plant injury at 125 g/ha (in [8]; with corn (Zea mays)) was 0% each time.

On to `COc1cc([C@H]2CN(C)C(=O)[C@@H]2C(=O)Nc2cccc(F)c2F)cc(C(F)(F)F)c1` [Compound 856], for which the pest or weed control at 125 g/ha in [1] is 50%; in test [2], 20%; in [3], 90%; with Kochia (Kochia scoparia) [4], 40%; in [5] it was 90%; in [6], 0%. Besides, the pest or weed control at 125 g/ha was 40% in test [7]; 20% in [9]; 40% in test [10]; 90% in [11]; 30% in the test on Kochia (Kochia scoparia) [12]; 80% in [13]. Also, the pest or weed control at 125 g/ha in test [14] turned out to be 0%. For the same compound, the pest or weed control at 500 g/ha in test [1] worked out at 80%; in [2], 50%; in test [3] it was 90%; in the test with Kochia (Kochia scoparia) [4], 50%; in [5], 90%; in test [6], 20%. The values for the plant injury at 125 g/ha (in [8]; with corn (Zea mays)) were 50% and 80%, respectively.

On to `O=C1NC[C@H](c2ccc(F)c(OC(F)(F)C(F)(F)Br)c2)[C@H]1C(=O)Nc1cccc(F)c1F` (racemic) [Compound 914], for which the pest or weed control at 125 g/ha in test [1] came to 0%; in test [2], 90%; in test [3], 90%; in the test on Kochia (Kochia scoparia) [4], 60%; in test [5], 70%; in [6], 0%. Moreover, the pest or weed control at 125 g/ha in [7] worked out at 0%; in [9], 80%; in test [10] it was 60%; in [11], 70%; in the test on Kochia (Kochia scoparia) [12], 70%; in test [13], 0%. In test [14], the pest or weed control at 125 g/ha was 20%. Also, the pest or weed control at 500 g/ha in test [1] is 60%; in test [2] it was 90%; in test [3] it was 90%; in the test on Kochia (Kochia scoparia) [4], 60%; in test [5] it was 90%; in test [6] it was 0%. The plant injury at 125 g/ha (in test [8]; with corn (Zea mays)) was 0% in each case.

Turning to `COc1ccc([C@H]2CN(C)C(=O)[C@@H]2C(=O)Nc2ccccc2F)cc1OC` [Compound 852], the pest or weed control at 125 g/ha in [1] worked out at 0%; in test [2] it was 20%; in test [3], 90%; in the test with Kochia (Kochia scoparia) [4] it was 0%; in test [5] it was 90%; in [6], 0%. In addition, the pest or weed control at 125 g/ha in test [7] is 0%; in [9] it was 0%; in test [10] it was 0%; in [11], 80%; in the test on Kochia (Kochia scoparia) [12], 0%; in test [13], 90%. The pest or weed control at 125 g/ha in test [14] is 0%. Also, the pest or weed control at 500 g/ha in test [1] worked out at 30%; in [2] it was 40%; in test [3] it was 90%; with Kochia (Kochia scoparia) [4], 20%; in test [5] it was 90%; in test [6] it was 0%. In addition, the plant injury at 125 g/ha (in test [8]; with corn (Zea mays)) was 0% in each case.

With `CN1C[C@H](c2cccc(C3CC3)c2)[C@@H](C(=O)Nc2ccc(F)cc2F)C1=O` [Compound 818], the pest or weed control at 125 g/ha in test [1] amounted to 60%; in [2] it was 20%; in [3], 90%; with Kochia (Kochia scoparia) [4], 70%; in [5], 90%; in test [6] it was 0%. Besides, the pest or weed control at 125 g/ha in test [7] is 40%; in test [9] it was 20%; in [10], 50%; in test [11], 90%; in the test on Kochia (Kochia scoparia) [12] it was 40%; in test [13] it was 90%. Further, in test [14], the pest or weed control at 125 g/ha worked out at 0%. In addition, the pest or weed control at 500 g/ha came out at 90% in test [1]; 60% in test [2]; 100% in [3]; 80% with Kochia (Kochia scoparia) [4]; 100% in test [5]; 0% in test [6]. Moreover, the plant injury at 125 g/ha in test [8] was 0%; in the test on corn (Zea mays), 40%.

The values above are taken from patent US12077503B2, “Substituted cyclic amides and their use as herbicides” (FMC CORPORATION, priority 2015, dated 2024).
